Measured values from US6525001B1, “Substituted pyrimidine and pyridine herbicides” (Mid-American Commercialization Corporation, priority 1997, dated 2003).

Key:
Assay in all cases: Test B pre-/postemergence
Type in all cases: in vivo
Set-up in all cases: key: 0 is no effect; 10 is complete control
wild oat (Avena fatua) = tested on: wild oat (Avena fatua)
Outline: (§1)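 Seeds were planted and sprayed preemergence, while plants at 2 to 18 cm (1- to 4-leaf stage) were sprayed postemergence at the same time, with test chemical in a non-phytotoxic solvent mixture containing surfactant. After twelve to sixteen days in a greenhouse, injury was rated visually against untreated controls on a 0–10 scale.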

[1] = tested on: bedstraw (Galium aparine)
Outline: as §1

[2] = tested on: momingglory (Ipomoea hederacea)
Outline: as §1

[3] = tested on: velvetleaf (Abutilon theophrasti)
Outline: as §1

corn (Zea mays) = tested on: corn (Zea mays)
Outline: as §1

[4] = tested on: sugar beet (Beta vulgaris)
Outline: as §1

[5] = tested on: cocklebur (Xanthium strumarium)
Outline: as §1

[6] = tested on: pigweed (Amaranthus retroflexus)
Outline: as §1

[7] = tested on: blackgrass (Alopecurus myosuroides)
Outline: as §1

[8] = tested on: crabgrass (Digitaria sanguinalis)
Outline: as §1

[9] = tested on: broadleaf signalgrass (Brachiaria decumbens)
Outline: as §1

[10] = tested on: purple nutsedge (Cyperus rotundus)
Outline: as §1

[11] = tested on: giant foxtail (Setaria faberii)
Outline: as §1

[12] = tested on: wheat (Triticum aestivum)
Outline: as §1

[13] = Preemergence, Rate 62 g/ha, scale of 0 to 10

Cc1cnc(-c2ccc(C(F)(F)F)cc2)nc1Cn1ccc(C#N)n1 [Compound 53]
Plant response rating, Wild oats (wild oat (Avena fatua); [13]): 0 | Wild oats plant response rating (wild oat (Avena fatua); Rate 62 g/ha, Postemergence): 1 | Wild oats plant response rating (wild oat (Avena fatua); Rate 125 g/ha, Postemergence): 1 | Plant response rating, Wild oats (wild oat (Avena fatua); Rate 125 g/ha, Preemergence): 0 | Plant response rating, Wild oats (wild oat (Avena fatua); Rate 250 g/ha, Postemergence): 1 | Plant response rating, Wild oats (wild oat (Avena fatua); Rate 250 g/ha, Preemergence): 1 | Plant response rating, Wild oats (wild oat (Avena fatua); Rate 500 g/ha, Postemergence): 2 | Plant response rating, Wild oats (wild oat (Avena fatua); Rate 500 g/ha, Preemergence): 1 | Plant response rating, Bedstraw [1, 13]: 1 | Bedstraw plant response rating ([1]; Rate 62 g/ha, Postemergence): 5 | Bedstraw plant response rating ([1]; Rate 125 g/ha, Postemergence): 8 | Plant response rating, Bedstraw ([1]; Rate 125 g/ha, Preemergence): 3 | Plant response rating, Bedstraw ([1]; Rate 250 g/ha, Postemergence): 10 | Plant response rating, Bedstraw ([1]; Rate 250 g/ha, Preemergence): 7 | Plant response rating, Bedstraw ([1]; Rate 500 g/ha, Postemergence): 10 | Plant response rating, Bedstraw ([1]; Rate 500 g/ha, Preemergence): 8 | Plant response rating, Morningglory [2, 13]: 1 | Morningglory plant response rating ([2]; Rate 125 g/ha, Postemergence): 3 | Plant response rating, Morningglory ([2]; Rate 125 g/ha, Preemergence): 2 | Plant response rating, Morningglory ([2]; Rate 250 g/ha, Preemergence): 2 | Plant response rating, Morningglory ([2]; Rate 500 g/ha, Postemergence): 3 | Plant response rating, Morningglory ([2]; Rate 500 g/ha, Preemergence): 5 | Plant response rating, Velvetleaf [3, 13]: 0 | Velvetleaf plant response rating ([3]; Rate 62 g/ha, Postemergence): 6 | Velvetleaf plant response rating ([3]; Rate 125 g/ha, Postemergence): 6 | Plant response rating, Velvetleaf ([3]; Rate 125 g/ha, Preemergence): 2 | Plant response rating, Velvetleaf ([3]; Rate 250 g/ha, Postemergence): 7 | Plant response rating, Velvetleaf ([3]; Rate 250 g/ha, Preemergence): 4 | Plant response rating, Velvetleaf ([3]; Rate 500 g/ha, Postemergence): 7 | Plant response rating, Velvetleaf ([3]; Rate 500 g/ha, Preemergence): 8 | Plant response rating, Corn (corn (Zea mays); [13]): 0 | Corn plant response rating (corn (Zea mays); Rate 62 g/ha, Postemergence): 1 | Corn plant response rating (corn (Zea mays); Rate 125 g/ha, Postemergence): 1 | Plant response rating, Corn (corn (Zea mays); Rate 125 g/ha, Preemergence): 0 | Plant response rating, Corn (corn (Zea mays); Rate 250 g/ha, Postemergence): 1 | Plant response rating, Corn (corn (Zea mays); Rate 250 g/ha, Preemergence): 0 | Plant response rating, Corn (corn (Zea mays); Rate 500 g/ha, Postemergence): 1 | Plant response rating, Corn (corn (Zea mays); Rate 500 g/ha, Preemergence): 0 | Plant response rating, Sugarbeets [4, 13]: 4 | Sugarbeets plant response rating ([4]; Rate 62 g/ha, Postemergence): 9 | Sugarbeets plant response rating ([4]; Rate 125 g/ha, Postemergence): 10 | Plant response rating, Sugarbeets ([4]; Rate 125 g/ha, Preemergence): 8 | Plant response rating, Sugarbeets ([4]; Rate 250 g/ha, Postemergence): 10 | Plant response rating, Sugarbeets ([4]; Rate 250 g/ha, Preemergence): 9 | Plant response rating, Sugarbeets ([4]; Rate 500 g/ha, Postemergence): 10 | Plant response rating, Sugarbeets ([4]; Rate 500 g/ha, Preemergence): 9 | Plant response rating, Cocklebur [5, 13]: 0 | Cocklebur plant response rating ([5]; Rate 62 g/ha, Postemergence): 5 | Cocklebur plant response rating ([5]; Rate 125 g/ha, Postemergence): 5 | Plant response rating, Cocklebur ([5]; Rate 125 g/ha, Preemergence): 0 | Plant response rating, Cocklebur ([5]; Rate 250 g/ha, Postemergence): 6 | Plant response rating, Cocklebur ([5]; Rate 250 g/ha, Preemergence): 0 | Plant response rating, Cocklebur ([5]; Rate 500 g/ha, Postemergence): 6 | Plant response rating, Cocklebur ([5]; Rate 500 g/ha, Preemergence): 1 | Plant response rating, Redroot pigweed [6, 13]: 0 | Redroot pigweed plant response rating ([6]; Rate 62 g/ha, Postemergence): 2 | Redroot pigweed plant response rating ([6]; Rate 125 g/ha, Postemergence): 6 | Plant response rating, Redroot pigweed ([6]; Rate 125 g/ha, Preemergence): 2 | Plant response rating, Redroot pigweed ([6]; Rate 250 g/ha, Postemergence): 7 | Plant response rating, Redroot pigweed ([6]; Rate 250 g/ha, Preemergence): 7 | Plant response rating, Redroot pigweed ([6]; Rate 500 g/ha, Postemergence): 7 | Plant response rating, Redroot pigweed ([6]; Rate 500 g/ha, Preemergence): 8 | Plant response rating, Blackgrass [7, 13]: 0 | Blackgrass plant response rating ([7]; Rate 62 g/ha, Postemergence): 1 | Blackgrass plant response rating ([7]; Rate 125 g/ha, Postemergence): 1 | Plant response rating, Blackgrass ([7]; Rate 125 g/ha, Preemergence): 0 | Plant response rating, Blackgrass ([7]; Rate 250 g/ha, Postemergence): 1 | Plant response rating, Blackgrass ([7]; Rate 250 g/ha, Preemergence): 1 | Plant response rating, Blackgrass ([7]; Rate 500 g/ha, Postemergence): 6 | Plant response rating, Blackgrass ([7]; Rate 500 g/ha, Preemergence): 2 | Crabgrass plant response rating ([8]; Rate 62 g/ha, Postemergence): 1 | Crabgrass plant response rating ([8]; Rate 125 g/ha, Postemergence): 2 | Plant response rating, Crabgrass ([8]; Rate 125 g/ha, Preemergence): 4 | Plant response rating, Crabgrass ([8]; Rate 250 g/ha, Postemergence): 4 | Plant response rating, Crabgrass ([8]; Rate 250 g/ha, Preemergence): 6 | Plant response rating, Crabgrass ([8]; Rate 500 g/ha, Postemergence): 4 | Plant response rating, Crabgrass ([8]; Rate 500 g/ha, Preemergence): 8 | B. signalgrass plant response rating ([9]; Rate 62 g/ha, Postemergence): 1 | B. signalgrass plant response rating ([9]; Rate 62 g/ha, Preemergence): 0 | B. signalgrass plant response rating ([9]; Rate 125 g/ha, Postemergence): 1 | Plant response rating, B. signalgrass ([9]; Rate 125 g/ha, Preemergence): 1 | Plant response rating, B. signalgrass ([9]; Rate 250 g/ha, Postemergence): 2 | Plant response rating, B. signalgrass ([9]; Rate 250 g/ha, Preemergence): 2 | Plant response rating, B. signalgrass ([9]; Rate 500 g/ha, Postemergence): 2 | Plant response rating, B. signalgrass ([9]; Rate 500 g/ha, Preemergence): 6 | Plant response rating, Nutsedge [10, 13]: 0 | Nutsedge plant response rating ([10]; Rate 62 g/ha, Postemergence): 0 | Nutsedge plant response rating ([10]; Rate 125 g/ha, Postemergence): 0 | Plant response rating, Nutsedge ([10]; Rate 125 g/ha, Preemergence): 0 | Plant response rating, Nutsedge ([10]; Rate 250 g/ha, Postemergence): 0 | Plant response rating, Nutsedge ([10]; Rate 250 g/ha, Preemergence): 0 | Plant response rating, Nutsedge ([10]; Rate 500 g/ha, Preemergence): 0 | Plant response rating, Giant foxtail [11, 13]: 1 | Giant foxtail plant response rating ([11]; Rate 62 g/ha, Postemergence): 1 | Giant foxtail plant response rating ([11]; Rate 125 g/ha, Postemergence): 1 | Plant response rating, Giant foxtail ([11]; Rate 125 g/ha, Preemergence): 5 | Plant response rating, Giant foxtail ([11]; Rate 250 g/ha, Postemergence): 1 | Plant response rating, Giant foxtail ([11]; Rate 250 g/ha, Preemergence): 6 | Plant response rating, Giant foxtail ([11]; Rate 500 g/ha, Postemergence): 2 | Plant response rating, Giant foxtail ([11]; Rate 500 g/ha, Preemergence): 6 | Plant response rating, Wheat [12, 13]: 0 | Wheat plant response rating ([12]; Rate 62 g/ha, Postemergence): 1 | Wheat plant response rating ([12]; Rate 125 g/ha, Postemergence): 1 | Plant response rating, Wheat ([12]; Rate 125 g/ha, Preemergence): 0 | Plant response rating, Wheat ([12]; Rate 250 g/ha, Postemergence): 1 | Plant response rating, Wheat ([12]; Rate 250 g/ha, Preemergence): 0 | Plant response rating, Wheat ([12]; Rate 500 g/ha, Postemergence): 2 | Plant response rating, Wheat ([12]; Rate 500 g/ha, Preemergence): 1
